Laboratory results: paper PMC6329299 (The pharmacogenomics journal, 2015)
Counter-ions that a name gives are not always drawn.

B1: wild type (WT) CES1 (Homo sapiens) (protein)
chain: AGHPSSPPVVDTVHGKVLGKFVSLEGFAQPVAIFLGIPFAKPPLGPLRFTPPQPAEPWSFVKNATSYPPMCTQDPKAGQLLSELFTNRKENIPLKLSEDCLYLNIYTPADLTKKNRLPVMVWIHGGGLMVGAASTYDGLALAAHENVVVVTIQYRLGIWGFFSTGDEHSRGNWGHLDQVAALRWVQDNIASFGGNPGSVTIFGESAGGESVSVLVLSPLAKNLFHRAISESGVALTSVLVKKGDVKPLAEQIAITAGCKTTTSAVMVHCLRQKTEEELLETTLKMKFLSLDLQGDPRESQPLLGTVIDGMLLLKTPEELQAERNFHTVPYMVGINKQEFGWLIPMQLMSYPLSEGQLDQKTAMSLLWKSYPLVCIAKELIPEATEKYLGGTDDTVKKKDLFLDLIADVMFGVPSVIVARNHRDAGAPTYMYEFQYRPSFSSDMKPKTVIGDHGDELFSVFGAPFLKEGASEEEIRLSKMVMKFWANFARNGNPNGEGLPHWPEYNQKEGYLQIGANTQAAQKLKDKEVAFWTNLFAKKAVEKPPQTEHIEL

Experiments:
[1] = Hydrolysis by human intestine s9 fractions; assay type: in vitro ADME; conditions: substrate 100 μM, 3 concentrations of HIS9
[2] = Hydrolysis by human kidney s9 fractions; assay type: in vitro ADME; conditions: substrate 100 μM, 3 concentrations of HKS9
Hydrolysis = conditions: for Vmax: HLS9, PBS pH 7.4, 37 °C, unit for ACEIs other than enalapril; for Km: human, pooled human liver s9 fractions (HLS9), pH 7.4; for Hydrolysis to active metabolite by human liver s9 fractions: prodrug 100 μM, 3 concentrations of HLS9
not read [3] = substrate: CCC(=O)O[C@@H](O[P@](=O)(CCCCc1ccccc1)CC(=O)N1C[C@H](C2CCCCC2)C[C@H]1C(=O)O)C(C)C; test: not read; conditions: other: WT CES1 cell s9; pH 7.4
not read [4] = substrate: CCC[C@H](N[C@@H](C)C(=O)N1[C@H](C(=O)O)C[C@@H]2CCCC[C@@H]21)C(=O)OCC; test: not read; conditions: other: WT CES1 cell s9; pH 7.4
not read [5] = substrate: CCOC(=O)[C@H](CCc1ccccc1)N[C@@H](C)C(=O)N1CCC[C@H]1C(=O)O; test: not read; conditions: other: WT CES1 cell s9; pH 7.4
not read [6] = substrate: CCOC(=O)[C@H](CCc1ccccc1)N[C@@H](C)C(=O)N1Cc2cc(OC)c(OC)cc2C[C@H]1C(=O)O; test: not read; conditions: other: WT CES1 cell s9; pH 7.4
not read [7] = substrate: CCOC(=O)[C@H](CCc1ccccc1)N[C@@H](C)C(=O)N1[C@H](C(=O)O)C[C@@H]2CCC[C@@H]21; test: not read; conditions: other: WT CES1 cell s9; pH 7.4

| Molecule | Hydrolysis by human intestine s9 fractions [1] | Hydrolysis by human kidney s9 fractions [2] | Vmax (Hydrolysis) | Km (Hydrolysis) | Hydrolysis to active metabolite by human liver s9 fractions (Hydrolysis) | further results |
| --- | --- | --- | --- | --- | --- | --- |
| CCC[C@H](N[C@@H](C)C(=O)N1[C@H](C(=O)O)C[C@@H]2CCCC[C@@H]21)C(=O)OCC [Perindopril, perindopril erbumine] | No appreciable activation | No appreciable activation | 18.1 ± 0.8 nmole/min/mg protein | 1770 ± 165 µM | efficiently hydrolyzed | – |
| CC(=O)Oc1ccc([N+](=O)[O-])cc1 [PNPA, p-nitrophenyl acetate] | readily hydrolyzed | readily hydrolyzed | – | – | – | – |
| CCC(=O)O[C@@H](O[P@](=O)(CCCCc1ccccc1)CC(=O)N1C[C@H](C2CCCCC2)C[C@H]1C(=O)O)C(C)C [Fosinopril, Fosinopril sodium salt] | No appreciable activation | No appreciable activation | 1.4 ± 0.2 nmole/min/mg protein | 471 ± 212 µM | efficiently hydrolyzed | – |
| CCOC(=O)[C@H](CCc1ccccc1)N[C@@H](C)C(=O)N1Cc2cc(OC)c(OC)cc2C[C@H]1C(=O)O [Moexipril, moexipril hydrochloride] | No appreciable activation | No appreciable activation | 4.4 ± 0.3 nmole/min/mg protein | 1460 ± 266 µM | efficiently hydrolyzed | – |
| B1 | – | – | – | – | – | Km (not read [3]): 276.1 ± 83.2 µM; Vmax (not read [3]): 1.6 ± 0.1 nmole/min/mg protein; Vmax/Km (not read [3]): 5.7 μl/min/mg protein; Km (not read [4]): 477.5 ± 60.9 µM; Vmax (not read [4]): 8.3 ± 0.4 nmole/min/mg protein; Vmax/Km (not read [4]): 17.4 μl/min/mg protein; Km (not read [5]): 36.6 ± 4.5 µM; Vmax (not read [5]): 389.0 ± 16.1 pmole/min/mg protein; Vmax/Km (not read [5]): 10.6 μl/min/mg protein; Km (not read [6]): 143.6 ± 24.5 µM; Vmax (not read [6]): 1.8 ± 0.1 nmole/min/mg protein; Vmax/Km (not read [6]): 12.4 μl/min/mg protein; Km (not read [7]): 245.6 ± 39.9 µM; Vmax (not read [7]): 11.6 ± 0.6 nmole/min/mg protein; Vmax/Km (not read [7]): 47.1 μl/min/mg protein |
